# Laboratory results taken from patent US20060069132A1, “Azolecarboxamide herbicides” (priority 2004, published 2006).
# Key:
# [1] = system: small flower umbrella sedge; assay: Test B flooded paddy test; assay type: in vivo, Cyperus difformis; settings: 1000 g ai/ha, visual rating, scale 0 to 100 (0 no effect, 100 complete control), 13 to 15 days
# Outline: (§1)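 Formulated test chemicals went onto postemergence plants measuring 2 to 18 cm, at one to four leaves. For the paddy assay, species had reached two leaves. Scoring took place 13–15 days later by eye, relative to untreated plants, using 0 for no effect up to 100 for full control.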
# rice = assay: Test B flooded paddy test; assay type: in vivo, Oryza sativa; settings: 1000 g ai/ha, visual rating, scale 0 to 100 (0 no effect, 100 complete control), 13 to 15 days
# Outline: as §1
# barnyardgrass [2] = assay: Test B flooded paddy test; assay type: in vivo, Echinochloa crus-galli; settings: 1000 g ai/ha, visual rating, scale 0 to 100 (0 no effect, 100 complete control), 13 to 15 days
# Outline: as §1
# blackgrass = assay: Test B postemergence herbicide test; assay type: in vivo, Alopecurus myosuroides; settings: postemergence, visual rating, scale 0 (no effect) to 100 (complete control)
# Outline: as §1
# velvetleaf = assay: Test B pre-/postemergence herbicide test; assay type: in vivo, Abutilon theophrasti; settings: for Velvetleaf plant response rating: postemergence, visual rating, scale 0 (no effect) to 100 (complete control)
# Outline: (§2)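 Plants compared with untreated controls 13–15 days post-treatment and given a visual 0–100 injury score. Applications: preemergence to seeds; postemergence at 1- to 4-leaf (2–18 cm); paddy species flooded, 2-leaf stage. Vehicle non-phytotoxic, surfactant included.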
# large crabgrass = assay: Test B pre-/postemergence herbicide test; assay type: in vivo, Digitaria sanguinalis; settings: for Crabgrass, Large plant response rating: postemergence, visual rating, scale 0 (no effect) to 100 (complete control)
# Outline: as §2
# ducksalad = assay: Test B flooded paddy test; assay type: in vivo, Heteranthera limosa; settings: 1000 g ai/ha, visual rating, scale 0 to 100 (0 no effect, 100 complete control), 13 to 15 days
# Outline: as §1
# Surinam grass = assay: Test B pre-/postemergence herbicide test; assay type: in vivo, Urochloa decumbens; settings: for Surinam Grass plant response rating: postemergence, visual rating, scale 0 (no effect) to 100 (complete control)
# Outline: as §2
# pigweed = assay: Test B pre-/postemergence herbicide test; assay type: in vivo, Amaranthus retroflexus; settings: for Pigweed plant response rating: postemergence, visual rating, scale 0 (no effect) to 100 (complete control)
# Outline: as §2
# barnyardgrass [3] = assay: Test B pre-/postemergence herbicide test; assay type: in vivo, Echinochloa crus-galli; settings: for Barnyardgrass plant response rating: postemergence, visual rating, scale 0 (no effect) to 100 (complete control)
# Outline: as §2
# corn = assay: Test B pre-/postemergence herbicide test; assay type: in vivo, Zea mays; settings: for Corn plant response rating: postemergence, visual rating, scale 0 (no effect) to 100 (complete control)
# Outline: as §2
# giant foxtail = assay: Test B pre-/postemergence herbicide test; assay type: in vivo, Setaria faberi; settings: for Foxtail, Giant plant response rating: postemergence, visual rating, scale 0 (no effect) to 100 (complete control)
# Outline: as §2
# cocklebur = assay: Test B pre-/postemergence herbicide test; assay type: in vivo, Xanthium strumarium; settings: for Cocklebur plant response rating: postemergence, visual rating, scale 0 (no effect) to 100 (complete control)
# Outline: as §2
# morningglory = assay: Test B pre-/postemergence herbicide test; assay type: in vivo, Ipomoea coccinea; settings: for Morningglory plant response rating: postemergence, visual rating, scale 0 (no effect) to 100 (complete control)
# Outline: as §2
# wild oat = assay: Test B postemergence herbicide test; assay type: in vivo, Avena fatua; settings: postemergence, visual rating, scale 0 (no effect) to 100 (complete control)
# Outline: (§3)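 Plants grow to 1- to 4-leaf stage (2–18 cm) for postemergence spraying, or to 2-leaf stage for the paddy test. Formulated compound is applied. Greenhouse holding lasts 13–15 days. Response is scored visually relative to controls, 0 no effect to 100 complete control; a dash means no result.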
# wheat = assay: Test B postemergence herbicide test; assay type: in vivo, Triticum aestivum; parameters: key to Wheat plant response rating: 0 = no effect, 100 = complete control; settings: postemergence, visual rating, scale 0 (no effect) to 100 (complete control)
# Outline: as §3
# [4] = 125 g ai/ha, 0 = no effect, 100 = complete control, preemergence
# [5] = 500 g ai/ha, visual rating 0-100, 0 no effect, 100 complete control, preemergence
smiles,measurement,setting,value
CCNC(=O)c1cccc(NC(=O)c2sc(C(C)(C)C)nc2CC)c1 [Compound 210],"Sedge, Umbrella plant response rating",[1],80
same,Rice plant response rating,rice,70
same,Barnyardgrass plant response rating,barnyardgrass [2],80
same,Blackgrass plant response rating,blackgrass; 125 g ai/ha,10
same,Blackgrass plant response rating,blackgrass; 500 g ai/ha,30
same,Velvetleaf plant response rating (0 to 100 scale),velvetleaf; [4],10
same,"Plant response rating, Velvetleaf",velvetleaf; [5],70
same,Velvetleaf plant response rating,velvetleaf; 125 g ai/ha,30
same,Velvetleaf plant response rating,velvetleaf; 500 g ai/ha,70
same,"Crabgrass, Large plant response rating (0 to 100 scale)",large crabgrass; [4],90
same,"Plant response rating, Crabgrass, Large",large crabgrass; [5],90
same,"Crabgrass, Large plant response rating",large crabgrass; 125 g ai/ha,20
same,"Crabgrass, Large plant response rating",large crabgrass; 500 g ai/ha,20
same,Ducksalad plant response rating,ducksalad,80
same,Surinam Grass plant response rating (0 to 100 scale),Surinam grass; [4],60
same,"Plant response rating, Surinam Grass",Surinam grass; [5],70
same,Surinam Grass plant response rating,Surinam grass; 125 g ai/ha,20
same,Surinam Grass plant response rating,Surinam grass; 500 g ai/ha,30
same,Pigweed plant response rating (0 to 100 scale),pigweed; [4],100
same,"Plant response rating, Pigweed",pigweed; [5],100
same,Pigweed plant response rating,pigweed; 125 g ai/ha,40
same,Pigweed plant response rating,pigweed; 500 g ai/ha,70
same,Barnyardgrass plant response rating (0 to 100 scale),barnyardgrass [3]; [4],70
same,"Plant response rating, Barnyardgrass",barnyardgrass [3]; [5],90
same,Barnyardgrass plant response rating,barnyardgrass [3]; 125 g ai/ha,20
same,Barnyardgrass plant response rating,barnyardgrass [3]; 500 g ai/ha,40
same,Corn plant response rating (0 to 100 scale),corn; [4],20
same,"Plant response rating, Corn",corn; [5],70
same,Corn plant response rating,corn; 125 g ai/ha,20
same,Corn plant response rating,corn; 500 g ai/ha,60
same,"Foxtail, Giant plant response rating (0 to 100 scale)",giant foxtail; [4],80
same,"Plant response rating, Foxtail, Giant",giant foxtail; [5],100
same,"Foxtail, Giant plant response rating",giant foxtail; 125 g ai/ha,20
same,"Foxtail, Giant plant response rating",giant foxtail; 500 g ai/ha,30
same,Cocklebur plant response rating (0 to 100 scale),cocklebur; [4],10
same,"Plant response rating, Cocklebur",cocklebur; [5],40
same,Cocklebur plant response rating,cocklebur; 125 g ai/ha,60
same,Cocklebur plant response rating,cocklebur; 500 g ai/ha,90
same,Morningglory plant response rating (0 to 100 scale),morningglory; [4],20
same,"Plant response rating, Morningglory",morningglory; [5],30
same,Morningglory plant response rating,morningglory; 125 g ai/ha,30
same,Morningglory plant response rating,morningglory; 500 g ai/ha,70
same,"Oat, Wild plant response rating",wild oat; 125 g ai/ha,20
same,"Oat, Wild plant response rating",wild oat; 500 g ai/ha,20
same,Wheat plant response rating,wheat; 125 g ai/ha,20
same,Wheat plant response rating,wheat; 500 g ai/ha,20
